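Where inhibition never reached the appropriate level, the endpoint shown equals the highest concentration tested. Otherwise, values were interpolated linearly from a five-concentration, 48-hour dose response in 96-well plates. Abbreviation: GI50, concentration required for 50% inhibition of growth.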 Calls of active or inactive are those of the source. No stated cut-off is given here; in the data, active = GI50 up to about 1.1 µM and inactive = higher.
How the values were obtained:
Assay in all cases: growth of human tumour cells (NCI), 48 h
SW-620 = tested on: SW-620
DMS-114 = tested on: DMS-114
SN12C = tested on: SN12C
K562 = tested on: K562
OVCAR-8 = tested on: OVCAR-8
ACHN = tested on: ACHN
SF-295 = tested on: SF-295
SK-OV-3 = tested on: SK-OV-3
EKVX = tested on: EKVX
SK-MEL-2 = tested on: SK-MEL-2
NCI-H460 = tested on: NCI-H460
KM-20L2 = tested on: KM-20L2
A498 = tested on: A498
OVCAR-3 = tested on: OVCAR-3
SNB-78 = tested on: SNB-78
COLO 205 = tested on: COLO 205
NCI-H522 = tested on: NCI-H522
M14 = tested on: M14
CCRF-CEM = tested on: CCRF-CEM
OVCAR-5 = tested on: OVCAR-5
TK-10 = tested on: TK-10
DMS-273 = tested on: DMS-273
HL-60 = tested on: HL-60
CAKI-1 = tested on: CAKI-1
HCT-15 = tested on: HCT-15
UO-31 = tested on: UO-31
LOX IMVI = tested on: LOX IMVI
A549 = tested on: A549
UACC-257 = tested on: UACC-257
RPMI-8226 = tested on: RPMI-8226
Malme-3M = tested on: Malme-3M
HOP-92 = tested on: HOP-92
SR = tested on: SR
HCT-116 = tested on: HCT-116
M19-MEL = tested on: M19-MEL
U-251 = tested on: U-251
KM12 = tested on: KM12
OVCAR-4 = tested on: OVCAR-4
SNB-19 = tested on: SNB-19
RXF 393 = tested on: RXF 393
SK-MEL-28 = tested on: SK-MEL-28
SK-MEL-5 = tested on: SK-MEL-5
HCC 2998 = tested on: HCC 2998
HT-29 = tested on: HT-29
NCI-H23 = tested on: NCI-H23
MOLT-4 = tested on: MOLT-4
786-0 = tested on: 786-0
SNB-75 = tested on: SNB-75
SF-539 = tested on: SF-539
UACC-62 = tested on: UACC-62
SF-268 = tested on: SF-268
NCI-H226 = tested on: NCI-H226
HOP-62 = tested on: HOP-62
IGROV-1 = tested on: IGROV-1
LXFL 529 = tested on: LXFL 529
HOP-18 = tested on: HOP-18
XF498 = tested on: XF498
DLD-1 = tested on: DLD-1
MCF7 = tested on: MCF7
NCI/ADR-RES = tested on: NCI/ADR-RES

SMILES: COC(=O)c1c[nH]c2nc(N3CCOCC3)nn2c1=O
- GI50 (SW-620): > 100 µM (inactive)
- GI50 (DMS-114): > 100 µM (inactive)
- GI50 (SN12C): > 100 µM (inactive)
- GI50 (K562): > 100 µM (inactive)
- GI50 (OVCAR-8): > 100 µM (inactive)
- GI50 (ACHN): > 100 µM (inactive)
- GI50 (SF-295): > 100 µM (inactive)
- GI50 (SK-OV-3): > 100 µM (inactive)
- GI50 (EKVX): > 100 µM (inactive)
- GI50 (SK-MEL-2): > 100 µM (inactive)
- GI50 (NCI-H460): > 100 µM (inactive)
- GI50 (KM-20L2): > 100 µM (inactive)
- GI50 (A498): > 100 µM (inactive)
- GI50 (OVCAR-3): > 100 µM (inactive)
- GI50 (SNB-78): > 100 µM (inactive)
- GI50 (COLO 205): > 100 µM (inactive)
- GI50 (NCI-H522): > 100 µM (inactive)
- GI50 (M14): > 100 µM (inactive)
- GI50 (CCRF-CEM): > 100 µM (inactive)
- GI50 (OVCAR-5): > 100 µM (inactive)
- GI50 (TK-10): > 100 µM (inactive)
- GI50 (DMS-273): > 100 µM (inactive)
- GI50 (HL-60): > 100 µM (inactive)
- GI50 (CAKI-1): > 100 µM (inactive)
- GI50 (HCT-15): > 100 µM
- GI50 (UO-31): > 100 µM (inactive)
- GI50 (LOX IMVI): > 100 µM (inactive)
- GI50 (A549): > 100 µM (inactive)
- GI50 (UACC-257): > 100 µM (inactive)
- GI50 (RPMI-8226): > 100 µM (inactive)
- GI50 (Malme-3M): > 100 µM (inactive)
- GI50 (HOP-92): > 100 µM (inactive)
- GI50 (SR): > 100 µM (inactive)
- GI50 (HCT-116): > 100 µM (inactive)
- GI50 (M19-MEL): > 100 µM (inactive)
- GI50 (U-251): > 100 µM (inactive)
- GI50 (KM12): > 100 µM (inactive)
- GI50 (OVCAR-4): > 100 µM (inactive)
- GI50 (SNB-19): > 100 µM (inactive)
- GI50 (RXF 393): > 100 µM (inactive)
- GI50 (SK-MEL-28): > 100 µM (inactive)
- GI50 (SK-MEL-5): > 100 µM (inactive)
- GI50 (HCC 2998): > 100 µM (inactive)
- GI50 (HT-29): > 100 µM (inactive)
- GI50 (NCI-H23): > 100 µM (inactive)
- GI50 (MOLT-4): > 100 µM (inactive)
- GI50 (786-0): > 100 µM (inactive)
- GI50 (SNB-75): > 100 µM (inactive)
- GI50 (SF-539): > 100 µM (inactive)
- GI50 (UACC-62): > 100 µM (inactive)
- GI50 (SF-268): > 100 µM (inactive)
- GI50 (NCI-H226): > 100 µM (inactive)
- GI50 (HOP-62): > 100 µM (inactive)
- GI50 (IGROV-1): 1.84 µM (inactive)

SMILES: C=CCCCCC1CCC2CCC(CCCCC=C)N12 (stereo not given)
- GI50 (SW-620): 15.1 µM (inactive)
- GI50 (DMS-114): 15.7 µM (inactive)
- GI50 (SN12C): 15.7 µM (inactive)
- GI50 (K562): 12.1 µM (inactive)
- GI50 (OVCAR-8): 17.7 µM (inactive)
- GI50 (ACHN): 14.6 µM (inactive)
- GI50 (SF-295): 13.4 µM (inactive)
- GI50 (EKVX): > 10 µM (inactive)
- GI50 (SK-MEL-2): 10.7 µM (inactive)
- GI50 (NCI-H460): 12.4 µM (inactive)
- GI50 (KM-20L2): 12.1 µM (inactive)
- GI50 (OVCAR-3): 15.1 µM (inactive)
- GI50 (COLO 205): 16.2 µM (inactive)
- GI50 (NCI-H522): 14.2 µM (inactive)
- GI50 (M14): 15.4 µM (inactive)
- GI50 (CCRF-CEM): 11.6 µM (inactive)
- GI50 (TK-10): 16.6 µM (inactive)
- GI50 (DMS-273): 20 µM (inactive)
- GI50 (HL-60): 14.5 µM (inactive)
- GI50 (CAKI-1): 29.1 µM (inactive)
- GI50 (HCT-15): 6.3 µM
- GI50 (UO-31): 13.2 µM (inactive)
- GI50 (A549): 16.1 µM (inactive)
- GI50 (UACC-257): 15.2 µM (inactive)
- GI50 (RPMI-8226): 16.1 µM (inactive)
- GI50 (Malme-3M): 15.8 µM (inactive)
- GI50 (HOP-92): 10.3 µM (inactive)
- GI50 (SR): 14.2 µM (inactive)
- GI50 (LXFL 529): 14 µM (inactive)
- GI50 (HCT-116): 14.2 µM (inactive)
- GI50 (M19-MEL): 20.4 µM (inactive)
- GI50 (U-251): 20 µM (inactive)
- GI50 (KM12): 15.8 µM (inactive)
- GI50 (OVCAR-4): 13 µM (inactive)
- GI50 (SNB-19): 19 µM (inactive)
- GI50 (SK-MEL-28): 17.7 µM (inactive)
- GI50 (SK-MEL-5): 13.9 µM (inactive)
- GI50 (HCC 2998): 16.1 µM (inactive)
- GI50 (HOP-18): 21.3 µM (inactive)
- GI50 (HT-29): 9.38 µM (inactive)
- GI50 (MOLT-4): 15 µM (inactive)
- GI50 (786-0): 13.7 µM (inactive)
- GI50 (SNB-75): 28.1 µM (inactive)
- GI50 (SF-539): 16.9 µM (inactive)
- GI50 (UACC-62): 15.7 µM (inactive)
- GI50 (SF-268): 14.7 µM (inactive)
- GI50 (NCI-H226): 18.2 µM (inactive)
- GI50 (HOP-62): 16 µM (inactive)

SMILES: CN(C)CCNC(=O)c1cccc2cc3cc(O)ccc3nc12
- GI50 (SW-620): 0.611 µM (active)
- GI50 (DMS-114): 1.37 µM (inactive)
- GI50 (SN12C): 1.1 µM (active)
- GI50 (K562): 1.43 µM (inactive)
- GI50 (OVCAR-8): 0.796 µM (active)
- GI50 (SF-295): 1 µM (active)
- GI50 (SK-OV-3): 1.46 µM (inactive)
- GI50 (XF498): 0.916 µM (active)
- GI50 (EKVX): 1.95 µM (inactive)
- GI50 (SK-MEL-2): 2.14 µM (inactive)
- GI50 (DLD-1): 1.42 µM (inactive)
- GI50 (NCI-H460): 0.361 µM (active)
- GI50 (KM-20L2): 2.44 µM (inactive)
- GI50 (A498): 0.782 µM (active)
- GI50 (OVCAR-3): 1.13 µM (inactive)
- GI50 (SNB-78): 2.47 µM (inactive)
- GI50 (COLO 205): 0.897 µM (active)
- GI50 (CCRF-CEM): 0.59 µM (active)
- GI50 (OVCAR-5): 1.46 µM (inactive)
- GI50 (DMS-273): 0.662 µM (active)
- GI50 (HL-60): 0.355 µM (active)
- GI50 (CAKI-1): < 0.0499 µM (active)
- GI50 (HCT-15): 1.23 µM
- GI50 (UO-31): 1.12 µM (active)
- GI50 (LOX IMVI): 0.857 µM (active)
- GI50 (A549): 0.811 µM (active)
- GI50 (UACC-257): 1.26 µM (inactive)
- GI50 (RPMI-8226): 1.36 µM (inactive)
- GI50 (Malme-3M): 1.22 µM (inactive)
- GI50 (HOP-92): 0.792 µM (active)
- GI50 (MCF7): 0.473 µM (active)
- GI50 (HCT-116): 0.558 µM (active)
- GI50 (M19-MEL): 1.2 µM (inactive)
- GI50 (U-251): 1.36 µM (inactive)
- GI50 (KM12): 2.12 µM (inactive)
- GI50 (OVCAR-4): 2 µM (inactive)
- GI50 (SNB-19): 0.869 µM (active)
- GI50 (RXF 393): 1.11 µM (active)
- GI50 (SK-MEL-28): 1.92 µM (inactive)
- GI50 (SK-MEL-5): 1.23 µM (inactive)
- GI50 (HCC 2998): 2.2 µM (inactive)
- GI50 (NCI/ADR-RES): 1.48 µM (inactive)
- GI50 (HOP-18): 1.32 µM (inactive)
- GI50 (HT-29): 1.02 µM (active)
- GI50 (NCI-H23): 1.24 µM (inactive)
- GI50 (MOLT-4): 0.147 µM (active)
- GI50 (SNB-75): 1.93 µM (inactive)
- GI50 (SF-539): 1.11 µM (active)
- GI50 (UACC-62): 1.33 µM (inactive)
- GI50 (SF-268): 1.48 µM (inactive)
- GI50 (NCI-H226): 0.621 µM (active)
- GI50 (HOP-62): 1.06 µM (active)
- GI50 (IGROV-1): 1.37 µM (inactive)
